Data taken from patent US20220280661A1, “GLUCOCORTICOID RECEPTOR RADIOLIGANDS AND METHODS FOR THEIR PREPARATION AND USE” (The Regents of the University of California, priority 2019, published 2022).
Where “and” joins values, the source holds several entries; their conditions need not be identical. Identical values can stand only once. Like-named read-outs stand apart in the source and are kept apart here.

Experiments:
plasma protein [1] = assay: Plasma protein binding, rapid equilibrium dialysis, mouse plasma; format: in vitro ADME; conditions: plasma (rapid equilibrium dialysis device), pH 7.4, mouse plasma
Procedure: (§1) Plasma Protein Binding Studies. The rapid equilibrium dialysis (RED) device inserts along with a Teflon base plate (Pierce, Rockford, Ill.) were used for the binding studies. The pH of the human or mouse plasma was adjusted to 7.4 prior to the experiment. DMSO stocks (1 mM) were spiked into the plasma to make a final concentration of 2 μM. The spiked plasma solutions (300 μL) were placed into the sample chamber (indicated by the red ring); and 500 μL of PBS buffer, pH 7.4, was placed into the adjacent chamber. The plate was incubated at 37° C. on an orbital shaker (250 rpm) for 4 hours.
(§2) After 4 hours, from the RED plate, aliquots (100 μL) were removed from each side of the insert (plasma and buffer) and dispensed into the 96-well plate. Subsequently, 100 μL of blank plasma was added to the buffer samples and 100 μL of blank buffer was added to all the collected plasma samples. 300 μL of quench solution (50% acetonitrile, 50% methanol, and 0.05% formic acid, warmed up at 37° C.) containing internal standards was added to each well. Plates were sealed, vortexed, and centrifuged at 4° C. for 15 minutes at 4000 rpm. The supernatant was transferred to fresh plates for LC/MS/MS analysis. The sample were analyzed on LC/MS/MS using an AB Sciex API 4000 instrument, coupled to a Shimadzu LC-20AD LC Pump system. Analytical samples were separated using a Waters Atlantis T3 dC18 reverse phase HPLC column (20 mm×2.1 mm) at a flow rate of 0.5 mL/min. The mobile phase consisted of 0.1% formic acid in water (solvent A) and 0.1% formic acid in acetonitrile (solvent B).
(§3) The percentage of test compound bound to protein was calculated by the following equations:
(§4) % Free=(Concentration in buffer chamber/Concentration in plasma chamber)×100%

[2] = as above; format: in vitro ADME; conditions: mouse, plasma, pH 7.4, mouse plasma
Procedure: as §1, §2, §3, §4

plasma protein [3] = assay: Plasma protein binding, rapid equilibrium dialysis, human plasma; format: in vitro ADME; conditions: plasma (rapid equilibrium dialysis device), pH 7.4, human plasma
Procedure: as §1, §2, §3, §4

[4] = as above; format: in vitro ADME; conditions: human, plasma, pH 7.4, human plasma
Procedure: as §1, §2, §3, §4

[5] = from 90 min dynamic PET in C57B16/J mice
From the text: Normal Tissue Radiation Dose Estimation. Volumes of interest (VOIs) were drawn on coregistered CT images for brain, lungs, heart, liver, stomach, kidneys, and urinary bladder. All VOIs were either elliptical cylinder (5 mm long axis, 3 mm short axis, and 5 mm height for the brain), cylinders (3 mm diameter and 3 mm height for kidneys), or spheres (3 mm diameter for lungs, heart, liver, stomach, and urinary bladder), and they were placed well within the anatomical boundaries to minimize spill-over or spill-in of radioactivity. The mean values (in Bq/ml) in these VOIs were multiplied by standard mouse organ volumes (in ml) to estimate total activity (in Bq) within these organs. The total activity within the entire animal subtracted by all organ activities was used as activity in the remainder of the body. The percent of injected activity within the defined organs (% IA) was extrapolated to human-equivalent values using ratios of standard human organ weights to mouse organ weights.
These input % IA data for each organ and the remainder of the body were curve-fitted to derive time-integrated activity coefficients (also known as residence times) (in Bq-hr/Bq) and organ and whole-body effective doses for human equivalents were estimated using each mouse data. The data from the three animals were averaged to derive absorbed organs doses (in mGy/MBq) and whole-body effective dose (in mSv/MBq). Organ and effective dose estimations were performed using OLINDA version 2.0 using ICRP Publication 103 tissue weighting factors.
To explore the potential of (±)-^11C-YJH08 for human translation, a rodent dosimetry study was conducted in male and female C57B16/J mice ([…]). The human equivalent doses for an average adult male (73 kg) or an average adult female (60 kg) were calculated using OLINDA 2.0 incorporating ICRP103 tissue weighting factors based on region of interest analysis from 90 min dynamic PET acquisitions (Table 11). […] The values were calculated from a 90 min dynamic PET acquisition in intact male or female C57B16/J mice.

[6] = duplicate, read-out: % Bound (converted)
[7] = read-out: % Bound Average (converted)

In the case of `COc1cccc2c1-c1ccc3c(c1C(Cc1ccc(F)cc1)O2)C(C)=CC(C)(C)N3` (racemic) [YJH08, 5-(4-fluorobenzyl)-10-methoxy-2,2,4-trimethyl-2,5-dihydro-1H-chromeno[3,4-f]quinoline], the recovery at 4 h, 2 μM (plasma protein [1]) is reported as 100%, the fraction unbound at 4 h, 2 μM [2, 6] is reported as less than 0.0001 and the fraction unbound at 4 h, 2 μM [2, 7] is reported as less than 0.0001. The recovery at 4 h, 2 μM (plasma protein [3]) was 97.6%, the fraction unbound at 4 h, 2 μM [4, 6] was less than 0.0001 and the fraction unbound at 4 h, 2 μM [4, 7] was less than 0.0001.

In the case of `CC1=CC(C)(C)Nc2ccc3c(c21)C(Cc1ccc(F)cc1)Oc1cccc(O[11CH3])c1-3` (racemic) [(±)-^11C-YJH08], the “Effective Dose (whole-body)” value ([5]; Adult female (60 kg)) is reported as 0.0065±0.004 mSv/MBq and 0.00649 ± 0.000433 mSv/MBq, the “human equivalent absorbed dose, Adrenals” value ([5]; Adult female (60 kg)) is reported as 0.00578 ± 0.000156 mGy/MBq and the “human equivalent absorbed dose, Brain” value ([5]; Adult female (60 kg)) is reported as 0.00229 ± 0.000078 mGy/MBq. The “human equivalent absorbed dose, Breasts” value ([5]; Adult female (60 kg)) was 0.00286 ± 0.000129 mGy/MBq, the “human equivalent absorbed dose, Esophagus” value ([5]; Adult female (60 kg)) was 0.00544 ± 0.000439 mGy/MBq and the “human equivalent absorbed dose, Eyes” value ([5]; Adult female (60 kg)) was 0.00223 ± 0.000061 mGy/MBq. For the same molecule, the “human equivalent absorbed dose, Gallbladder Wall” value ([5]; Adult female (60 kg)) was 0.00459 ± 0.000041 mGy/MBq, the “human equivalent absorbed dose, Heart Wall” value ([5]; Adult female (60 kg)) was 0.0257 ± 0.005677 mGy/MBq and the “human equivalent absorbed dose, Kidneys” value ([5]; Adult female (60 kg)) was 0.00785 ± 0.001344 mGy/MBq. The “human equivalent absorbed dose, Left colon” value ([5]; Adult female (60 kg)) was 0.00437 ± 0.000314 mGy/MBq, the “human equivalent absorbed dose, Liver” value ([5]; Adult female (60 kg)) was 0.01863 ± 0.001258 mGy/MBq and the “human equivalent absorbed dose, Lungs” value ([5]; Adult female (60 kg)) was 0.00909 ± 0.000339 mGy/MBq. The “human equivalent absorbed dose, Osteogenic Cells” value ([5]; Adult female (60 kg)) was 0.00217 ± 0.000069 mGy/MBq, the “human equivalent absorbed dose, Ovaries” value ([5]; Adult female (60 kg)) was 0.00288 ± 0.000090 mGy/MBq and the “human equivalent absorbed dose, Pancreas” value ([5]; Adult female (60 kg)) was 0.00545 ± 0.000182 mGy/MBq. The “human equivalent absorbed dose, Rectum” value ([5]; Adult female (60 kg)) was 0.0028 ± 0.000087 mGy/MBq, the “human equivalent absorbed dose, Red Marrow” value ([5]; Adult female (60 kg)) was 0.00289 ± 0.000101 mGy/MBq and the “human equivalent absorbed dose, Right colon” value ([5]; Adult female (60 kg)) was 0.00339 ± 0.000070 mGy/MBq. The “human equivalent absorbed dose, Salivary Glands” value ([5]; Adult female (60 kg)) was 0.00241 ± 0.000068 mGy/MBq, the “human equivalent absorbed dose, Small Intestine” value ([5]; Adult female (60 kg)) was 0.00325 ± 0.000114 mGy/MBq and the “human equivalent absorbed dose, Spleen” value ([5]; Adult female (60 kg)) was 0.00432 ± 0.0003 mGy/MBq. For the same molecule, the “human equivalent absorbed dose, Stomach Wall” value ([5]; Adult female (60 kg)) was 0.01925 ± 0.002944 mGy/MBq, the “human equivalent absorbed dose, Thymus” value ([5]; Adult female (60 kg)) was 0.00498 ± 0.000454 mGy/MBq and the “human equivalent absorbed dose, Thyroid” value ([5]; Adult female (60 kg)) was 0.00297 ± 0.000118 mGy/MBq. The “human equivalent absorbed dose, Total Body” value ([5]; Adult female (60 kg)) was 0.00366 ± 0.000121 mGy/MBq, the “human equivalent absorbed dose, Urinary Bladder Wall” value ([5]; Adult female (60 kg)) was 0.00288 ± 0.000114 mGy/MBq and the “human equivalent absorbed dose, Uterus” value ([5]; Adult female (60 kg)) was 0.00284 ± 0.000085 mGy/MBq. For the same molecule, the “Effective Dose (whole-body)” value ([5]; Adult male (73 kg)) was 0.0067±0.002 mSv/MBq and 0.00673 ± 0.002757 mSv/MBq, the “human equivalent absorbed dose, Adrenals” value ([5]; Adult male (73 kg)) was 0.00533 ± 0.000748 mGy/MBq and the “human equivalent absorbed dose, Brain” value ([5]; Adult male (73 kg)) was 0.0014 ± 0.000022 mGy/MBq. For the same molecule, the “human equivalent absorbed dose, Esophagus” value ([5]; Adult male (73 kg)) was 0.00831 ± 0.004249 mGy/MBq, the “human equivalent absorbed dose, Eyes” value ([5]; Adult male (73 kg)) was 0.00194 ± 0.000092 mGy/MBq and the “human equivalent absorbed dose, Gallbladder Wall” value ([5]; Adult male (73 kg)) was 0.00602 ± 0.000876 mGy/MBq. For the same molecule, the “human equivalent absorbed dose, Heart Wall” value ([5]; Adult male (73 kg)) was 0.06753 ± 0.05072 mGy/MBq, the “human equivalent absorbed dose, Kidneys” value ([5]; Adult male (73 kg)) was 0.00714 ± 0.000174 mGy/MBq and the “human equivalent absorbed dose, Left colon” value ([5]; Adult male (73 kg)) was 0.00374 ± 0.000769 mGy/MBq. For the same molecule, the “human equivalent absorbed dose, Liver” value ([5]; Adult male (73 kg)) was 0.01568 ± 0.001377 mGy/MBq, the “human equivalent absorbed dose, Lungs” value ([5]; Adult male (73 kg)) was 0.0135 ± 0.01113 mGy/MBq and the “human equivalent absorbed dose, Osteogenic Cells” value ([5]; Adult male (73 kg)) was 0.00223 ± 0.000391 mGy/MBq. The “human equivalent absorbed dose, Pancreas” value ([5]; Adult male (73 kg)) was 0.00665 ± 0.002374 mGy/MBq, the “human equivalent absorbed dose, Prostate” value ([5]; Adult male (73 kg)) was 0.0025 ± 0.000105 mGy/MBq and the “human equivalent absorbed dose, Rectum” value ([5]; Adult male (73 kg)) was 0.00249 ± 0.000093 mGy/MBq. For the same molecule, the “human equivalent absorbed dose, Red Marrow” value ([5]; Adult male (73 kg)) was 0.0031 ± 0.000771 mGy/MBq, the “human equivalent absorbed dose, Right colon” value ([5]; Adult male (73 kg)) was 0.00367 ± 0.000548 mGy/MBq and the “human equivalent absorbed dose, Salivary Glands” value ([5]; Adult male (73 kg)) was 0.00226 ± 0.000156 mGy/MBq. For the same molecule, the “human equivalent absorbed dose, Small Intestine” value ([5]; Adult male (73 kg)) was 0.00325 ± 0.000446 mGy/MBq, the “human equivalent absorbed dose, Spleen” value ([5]; Adult male (73 kg)) was 0.00378 ± 0.000828 mGy/MBq and the “human equivalent absorbed dose, Stomach Wall” value ([5]; Adult male (73 kg)) was 0.01628 ± 0.005962 mGy/MBq. The “human equivalent absorbed dose, Testes” value ([5]; Adult male (73 kg)) was 0.00204 ± 0.000046 mGy/MBq, the “human equivalent absorbed dose, Thymus” value ([5]; Adult male (73 kg)) was 0.01004 ± 0.005999 mGy/MBq and the “human equivalent absorbed dose, Thyroid” value ([5]; Adult male (73 kg)) was 0.00355 ± 0.00107 mGy/MBq. For the same molecule, the “human equivalent absorbed dose, Total Body” value ([5]; Adult male (73 kg)) was 0.00355 ± 0.000856 mGy/MBq and the “human equivalent absorbed dose, Urinary Bladder Wall” value ([5]; Adult male (73 kg)) was 0.00247 ± 0.000136 mGy/MBq.
